Reference: patent US20260275395A1, “ENZYMATIC CONVERSION OF D-XYLOSE INTO D-RIBOSE AND D-RIBULOSE-5-PHOSPHATE” (priority 2022, published 2026)

How the values were obtained:
[1] = target: EcPpk (polyphosphate kinase) (Escherichia coli, UniProt P0A7B1); settings: pre-incubation 4° C. 20 minutes; control: no metal ions added
Procedure: As a result, the highest activity was found at 50° C., as shown in [(a) of FIG. 10]. […] As a result, the highest activity was found in a sodium phosphate buffer (pH 7.0), as shown in [(b) of FIG. 10]. […] The decrease in enzyme activity was calculated by calculating the decrease in relative activity due to heat treatment, using the activity of the enzyme that was not allowed to stand as a control. […] [(d) of FIG. 10].

EcAraB (L-ribulokinase) [2] = target: T1, EcAraB (L-ribulokinase) (Escherichia coli, UniProt P08204); experiment: Effect of metal ions on the activity of EcAraB; assay type: biochemical; design: His tag (inferred: pET21a, NotI reverse primer without stop codon, HisTrap purification) (C); T7 tag and vector leader of pET21a (own knowledge: in-frame insertion at SacI keeps the vector's N-terminal leader) (N); made in house; host or cells: E. coli BL21 (DE3); settings: pre-incubation 4° C. 20 minutes; control: no metal ions added
Procedure: To determine the optimal reaction conditions for EcAraB, the optimal reaction temperature, pH, metal ion effects, and thermal stability were examined. […] The amount (mg) of EcAraB that produces 1 μmol of D-ribulose-5-phosphate per minute was defined as one unit.
As a result, as shown in [(a) of FIG. 9], the highest activity was found at 50° C. In order to determine the optimal pH conditions for EcAraB, the reaction was performed while varying the pH using various buffer solutions. […] [(d) of FIG. 9].

[3] = system: BpXylA (xylose isomerase); experiment: Effect of metal ions on the activity of BpXylA; assay type: biochemical, Bacteroides plebeius; settings: pre-incubation 4° C. 20 minutes; control: no metal ions added
Procedure: (§1) To investigate the optimal reaction conditions for BpXylA, the effects of optimal reaction temperature, pH, and metal ions were examined. The standard reaction conditions for BpXylA were set to a reaction with 1.09 U/ml BpXylA in 50 mM sodium phosphate (pH 7.0) buffer containing 10 mM D-xylose and 1 mM Mg^2+ at 50° C. for 10 minutes. The optimal reaction conditions for BpXylA described below were all determined by experiments under the standard reaction conditions.
(§2) First, in order to determine the optimal temperature conditions for BpXylA, the reaction was performed under standard reaction conditions at various temperature conditions. […] In order to determine the optimal pH of BpXylA, the reaction was performed while varying the pH using various buffer solutions.

[4] = system: BpXylA (xylose isomerase); experiment: Effect of metal ions on the thermal stability of BpXylA; assay type: biochemical, Bacteroides plebeius; settings: 1 mM metal ion; for Relative activity of BpXylA over time with metal ion: 50° C. (Mg^2+: 50° C. or higher), up to 90 minutes
Procedure: To investigate this, the culture was performed with each metal ion corresponding to a concentration of 1 mM together with the enzymes under various temperature conditions. As a result, as shown in [FIG. 4], higher thermal stability was found when the culture was performed with metal ions than when it was performed without metal ions. […] [(b) of FIG. 4 and (c) of FIG. 4].

[5] = system: BpRpiB (D-ribose-5-phosphate isomerase); experiment: Effect of metal ions on the activity of BpRpiB; assay type: biochemical, Bacteroides plebeius; settings: pre-incubation 4° C. 20 minutes; control: no metal ions added
Procedure: (§3) To determine the optimal reaction conditions for BpRpiB, the optimal reaction temperature, pH, metal ion effects, and thermal stability were examined. […] The amount (mg) of BpRpiB that produces 1 μmol of D-ribulose per minute was defined as one unit.
(§4) First, in order to determine the optimal temperature conditions for BpRpiB, the reaction was performed under standard reaction conditions at various temperature conditions. […] In order to investigate the optimal pH for the activity of BpRpiB, the reaction was performed by changing the pH using various buffer solutions. […] [(d) of FIG. 5].

[6] = system: BpRpiB (D-ribose-5-phosphate isomerase); experiment: Substrate specificity of BpRpiB; assay type: biochemical, Bacteroides plebeius; settings: substrate 2 mM, standard reaction conditions (50° C., 10 minutes)
Source text: as §3
BpRpiB used in the present invention is known to be an enzyme that converts the substrate D-ribulose-5-phosphate, which is originally a phosphorylated sugar, into D-ribose-5-phosphate. Therefore, in the present invention, in order to confirm the activity of BpRpiB for D-ribose and D-ribulose as well as D-ribulose-5-phosphate and D-ribose-5-phosphate, which are the original substrates of BpRpiB, the substrate specificity of BpRpiB for various aldo- and keto-sugars was examined [Table 2]. The experiment was performed using various aldo- and keto-sugars as substrates at a concentration of 2 mM under standard reaction conditions, and the relative activity against other substrates was expressed based on the activity against D-xylose. […] Therefore, in the present invention, in order to produce D-ribose from D-xylose, BpRpiB is sufficiently applicable as an enzyme that converts D-ribulose into D-ribose, which is the final reaction step of the multi-enzyme process.

[7] = system: BpXylA (xylose isomerase); experiment: Substrate specificity of BpXylA; assay type: biochemical, Bacteroides plebeius; settings: substrate 2 mM, standard reaction conditions (50 mM sodium phosphate pH 7.0, 1 mM Mg^2+, 50° C., 10 minutes); based on the activity for D-xylose
Procedure: as §1
In order to determine whether BpXylA used in the present invention is a suitable enzyme for producing D-ribose from D-xylose, the substrate specificity of BpXylA for various aldo- and keto-sugars was examined [Table 1]. The experiment was conducted using various aldo- and keto-sugars as substrates at a concentration of 2 mM under the standard reaction conditions, and the relative activity against other substrates was shown based on the activity for D-xylose. […] Therefore, BpXylA is sufficiently applicable for producing D-ribose from D-xylose in the present invention.

EcAraB (L-ribulokinase) [8] = target: T1, EcAraB (L-ribulokinase); settings: previous study; cited from earlier work
[9] = system: BpXylA (xylose isomerase); experiment: Optimal reaction temperature and pH of BpXylA; assay type: biochemical, Bacteroides plebeius
Procedure: as §1, §2

[10] = system: BpXylA (xylose isomerase); experiment: Thermal stability of BpXylA; assay type: physicochemical, Bacteroides plebeius
[11] = system: BpRpiB (D-ribose-5-phosphate isomerase); experiment: Thermal stability of BpRpiB; assay type: physicochemical, Bacteroides plebeius
Procedure: as §3, §4

[12] = target: T2, AtDpe (ketose 3-epimerase) (Agrobacterium fabrum, UniProt A9CH28); settings: 50° C. compared to 45° C.; previous study; cited from earlier work
T2 sequence (A9CH28 whole entry, looked up): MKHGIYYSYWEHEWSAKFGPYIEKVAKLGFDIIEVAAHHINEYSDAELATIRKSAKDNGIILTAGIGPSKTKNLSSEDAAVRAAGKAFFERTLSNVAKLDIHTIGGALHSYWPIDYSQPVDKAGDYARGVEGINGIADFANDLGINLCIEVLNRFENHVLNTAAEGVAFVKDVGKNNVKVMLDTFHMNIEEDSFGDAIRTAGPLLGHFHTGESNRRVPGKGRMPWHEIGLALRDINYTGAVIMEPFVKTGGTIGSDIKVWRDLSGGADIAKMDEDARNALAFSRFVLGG

[Co+2] [Co^2+]
Relative activity with metal ion added [1]: 176.14±24.10% | Relative activity with metal ion added (EcAraB (L-ribulokinase) [2]): 435.51±110.20% | Effect of metal ion on enzyme activity [3]: significantly increased | Relative activity of BpXylA over time with metal ion [4]: stably maintained

[Cu+2] [Cu^2+]
Effect of metal ion on enzyme activity [5]: significantly inhibited

O=C[C@@H](O)[C@H](O)[C@H](O)CO [D-Arabinose]
Relative activity (%) [6]: Not detected | Relative activity (%) [7]: Not detected

O=C(CO)[C@@H](O)[C@H](O)[C@H](O)CO [D-Fructose]
Relative activity (%) [6]: Not detected | Relative activity (%) [7]: Not detected

O=C[C@H](O)[C@@H](O)[C@H](O)[C@H](O)CO [D-Glucose]
Relative activity (%) [6]: Not detected | Relative activity (%) [7]: Not detected

O=C[C@@H](O)[C@@H](O)[C@H](O)[C@H](O)CO [D-Mannose]
Relative activity (%) [6]: Not detected | Relative activity (%) [7]: Not detected

O=C[C@H](O)[C@H](O)[C@H](O)COP(=O)(O)O [D-Ribose-5-phosphate]
Relative activity (%) [6]: 933.9 ± 11.7%

O=C[C@H](O)[C@H](O)[C@H](O)CO [D-Ribose]
Relative activity (%) [6]: 79.1 ± 0.4% | Relative activity (%) [7]: 33.2 ± 1.1%

O=C(CO)[C@H](O)[C@H](O)COP(=O)(O)O [D-Ribulose-5-phosphate]
Relative activity (%) [6]: 924.4 ± 33.7%

O=C(CO)[C@H](O)[C@H](O)CO [D-Ribulose]
Relative activity (%) [6]: 100 ± 4.8% | Relative activity (%) [7]: 13.9 ± 13.8%

O=C(CO)[C@@H](O)[C@@H](O)[C@H](O)CO [D-Tagatose]
Relative activity (%) [6]: Not detected | Relative activity (%) [7]: Not detected

O=C[C@H](O)[C@@H](O)[C@H](O)CO [D-Xylose]
Relative activity (%) [6]: Not detected | Relative activity (%) [7]: 100 ± 2.2%

O=C(CO)[C@@H](O)[C@H](O)CO [D-Xylulose]
Activity relative to the activity against D-ribulose (EcAraB (L-ribulokinase) [8]): 2.44% | Relative activity (%) [6]: Not detected | Relative activity (%) [7]: 156.5 ± 2.2%

O=C[C@H](O)[C@@H](O)[C@@H](O)CO [L-Arabinose]
Relative activity (%) [6]: Not detected | Relative activity (%) [7]: Not detected

O=C(CO)[C@@H](O)[C@H](O)[C@@H](O)CO [L-Sorbose]
Relative activity (%) [6]: Not detected | Relative activity (%) [7]: Not detected

[Mg+2] [Mg^2+]
Relative activity with metal ion added [1]: 202.12±7.46% | Relative activity with metal ion added (EcAraB (L-ribulokinase) [2]): 614.62±42.14% | Effect of metal ion on enzyme activity [3]: significantly increased | Relative activity with metal ion added [3]: 876.98±35.30% | Relative activity of BpXylA over time with metal ion [4]: decreased over time | Thermal stability of BpXylA with metal ion ([4]; versus without metal ions): thermal stability increased

[Mn+2] [Mn^2+]
Relative activity with metal ion added [1]: 161.48±5.53% | Relative activity with metal ion added (EcAraB (L-ribulokinase) [2]): 286.47±21.62% | Effect of metal ion on enzyme activity [3]: significantly increased | Relative activity of BpXylA over time with metal ion [4]: stably maintained | Relative activity of BpXylA with metal ion ([4]; 60° C.): stable

[Zn+2] [Zn^2+]
Effect of metal ion on enzyme activity [5]: significantly inhibited

BpXylA: xylose isomerase derived from Bacteroides plebeius, SEQ ID NO: 1
Optimal pH ([9]; sodium phosphate buffer): 7.0 | Optimal temperature for enzyme activity ([9]; standard reaction conditions, various temperatures): 50 °C | Enzyme activity after heat treatment ([10]; 40° C., up to 90 minutes): did not significantly decrease | Relative activity after heat treatment ([10]; 50° C. for 15 minutes, control: enzyme not allowed to stand): about 29.29±1.43%

B1: BpRpiB: D-ribose-5-phosphate isomerase derived from Bacteroides plebeius, SEQ ID NO: 5 (protein)
chain: MKTIGLASDHAGFELKQYVKKWLEAKGWEYKDFGTYTTDSCDYPDFAHPLALAVENGECYPGIAICGSGEGIGITLNKHQGIRAALCWIPEIAHLARQHNNANVLVMPGRFIDEAMADKIMTEFFTTDFEGGRHQARIDKIPVR
modifications: BpRpiB
Activity after heat treatment ([11]; 70° C.): rapidly decreased | Overall activity after heat treatment ([11]; up to 60° C.): stable

B2: AtDpe: ketose 3-epimerase derived from Agarobacterium tumefaciens, SEQ ID NO: 3 (protein)
chain: MKHGIYYSYWEHEWSAKFGPYIEKVAKLGFDIIEVAAHHINEYSDAELATIRKSAKDNGIILTAGIGPSKTKNLSSEDAAVRAAGKAFFERTLSNVAKLDIHTIGGALHSYWPIDYSQPVDKAGDYARGVEGINGIADFANDLGINLCIEVLNRFENHVLNTAAEGVAFVKDVGKNNVKVMLDTFHMNIEEDSFGDAIRTAGPLLGHFHTGESNRRVPGKGRMPWHEIGLALRDINYTGAVIMEPFVKTGGTIGSDIKVWRDLSGGADIAKMDEDARNALAFSRFVLGG
modifications: AtDpe
Thermal stability [12]: decreased rapidly
